Measured values published in US20250034161A1, “SPIROCYCLIC COMPOUND AS KRAS-G12C INHIBITOR” (Shanghai Euregen Biopharma Co., Ltd., priority 2020, published 2025).

How the values were obtained:
CYP 2B6 = target: T1, CYP 2B6 (Homo sapiens, UniProt P20813); experiment: CYP inhibition test, human liver microsomes, CYP2B6
T1 sequence (P20813 1-491): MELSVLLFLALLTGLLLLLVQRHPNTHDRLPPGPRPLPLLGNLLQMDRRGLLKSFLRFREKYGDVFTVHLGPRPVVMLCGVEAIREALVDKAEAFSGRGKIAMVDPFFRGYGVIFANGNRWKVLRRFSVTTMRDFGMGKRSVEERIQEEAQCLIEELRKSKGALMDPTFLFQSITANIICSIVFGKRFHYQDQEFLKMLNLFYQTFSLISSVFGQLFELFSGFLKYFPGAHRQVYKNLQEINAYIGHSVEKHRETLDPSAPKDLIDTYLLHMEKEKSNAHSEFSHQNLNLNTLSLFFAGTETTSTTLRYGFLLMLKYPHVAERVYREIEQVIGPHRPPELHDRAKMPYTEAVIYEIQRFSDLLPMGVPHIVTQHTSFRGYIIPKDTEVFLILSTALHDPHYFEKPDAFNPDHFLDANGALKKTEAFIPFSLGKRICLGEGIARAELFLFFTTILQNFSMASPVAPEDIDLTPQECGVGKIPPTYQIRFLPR
Experimental: (§1) • 1. Test purpose: to evaluate the inhibitory ability of some of the example compounds of the present invention against CYP1A2, 2B6, 2C8, 2C9, 2C19, 2D6 and 3A4 via human liver microsomes. • 2. […] Test method:
(§2) • 1. K/Mg buffer: the components were 0.1 mol/L potassium phosphate and 5 mmol/L magnesium chloride with pH 7.4±0.1, preheated. • 2. Solution of the test compound: the test compound was dissolved in dimethyl sulfoxide to prepare a stock solution of 10 mmol/L. 8 μL of 10 mmol/L stock solution was transferred to a 96-well plate containing 12 μL of acetonitrile as the highest concentration point, at 3-fold dilution, for 8 concentrations. • 3. […] Human liver microsomal stock solution: human liver microsomes were dissolved in 0.1 mol/L K/Mg buffer to obtain 20 mg/mL stock solution. • 5. Human liver microsomal working solution: 10 μL of 20 mg/mL human liver microsomal stock solution was taken and added into 990 μL of 0.1 mol/L K/Mg buffer to prepare 0.2 mg/mL human liver microsomal solution. • 6.
(§3) 600 μL of 0.2 mg/mL human liver microsomal solution and 3 μL of stepwise diluted test compound solution were added to the 96-well plate. 30 μL of the above solution was added on the 96-well plate followed by the addition of 15 μL of the corresponding substrate solution. […]

CYP 2D6 = CYP 2D6 (Homo sapiens, UniProt P10635); experiment: CYP inhibition test, human liver microsomes, CYP2D6
Experimental: as §1, §2, §3

[1] = Plasma protein binding assay (equilibrium dialysis), rat plasma; assay type: in vitro ADME; conditions: pH 7.4, equilibrium dialysis 5 hours, read-out: Plasma protein binding rate (%) (converted)
Experimental: • 1. Test purpose: to evaluate the protein binding rate of the test compound in human, dog, monkey, rat and mouse plasma by equilibrium dialysis; • 2. […] Experimental methods: • 0.1 mol/L sodium phosphate and 0.15 mol/L sodium chloride buffer with pH 7.4±0.1 was preheated;
Preparation of plasma containing test substance: the test compound was dissolved in DMSO to prepare a 10 mmol/l stock solution. 5 μL of stock solution was taken and diluted with 95 μL of acetonitrile to obtain solution A (0.5 mmol/L). 8 μL of solution A was taken and diluted with 192 μL of 0.1 mol/L sodium phosphate buffer to obtain solution B (0.02 mmol/L). 570 μL of plasma was added into a 96-well plate followed by the addition of 30 μL of solution B. The final concentration was 1 μmol/L with 0.01% DMSO.
The plate was shook at 600 rpm for 10 minutes, covered and stored in a freezer (−20° C.).
T5 sample preparation (in triplicate): the dialysis device was added with 100 μL of buffer on its receiver side and 100 μL of plasma containing the test compound on its doner side. And the dialysis device was then shook at 37° C. and 120 rpm for 5 hours. At the end of culture, 25 μL of plasma containing the test substance was taken from the plasma side and then added to a 96-well plate, followed by the addition of 25 μL of buffer and 200 μL of acetonitrile solution containing internal standard. […]

Sequence of CYP 2D6 (P10635 whole entry): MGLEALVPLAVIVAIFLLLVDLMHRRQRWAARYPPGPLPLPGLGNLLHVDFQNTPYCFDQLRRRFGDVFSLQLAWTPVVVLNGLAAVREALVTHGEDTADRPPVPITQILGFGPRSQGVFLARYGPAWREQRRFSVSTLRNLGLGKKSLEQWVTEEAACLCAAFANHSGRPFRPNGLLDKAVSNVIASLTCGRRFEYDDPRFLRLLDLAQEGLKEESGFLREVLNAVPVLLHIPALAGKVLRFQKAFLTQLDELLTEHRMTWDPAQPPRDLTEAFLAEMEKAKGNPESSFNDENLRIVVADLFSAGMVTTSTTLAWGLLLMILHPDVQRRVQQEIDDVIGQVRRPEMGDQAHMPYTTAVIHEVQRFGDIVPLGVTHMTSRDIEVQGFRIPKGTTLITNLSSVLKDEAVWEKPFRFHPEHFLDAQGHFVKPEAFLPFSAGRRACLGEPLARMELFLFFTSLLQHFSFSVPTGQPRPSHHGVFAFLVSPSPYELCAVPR

Compound	IC50 (CYP 2B6)	IC50 (CYP 2D6)	fraction unbound at 5 h, 1 μmol/L [1]
C=CC(=O)N1CCN(c2nc(=O)n(-c3c(C)ccnc3C(C)C)c3nc(-c4c(O)cccc4F)c(F)cc23)[C@@H](C)C1 [AMG510]	> 10 µM	> 10 µM	0.141
C=C(F)C(=O)N1CCN(c2nc(OC[C@@H]3CCCN3C)nc3c2CCN(c2cccc4cccc(Cl)c24)C3)C[C@@H]1CC#N [MRTX849]	3.93 µM	9.72 µM	0.01
